These results are taken from US8652533B2 (priority 2004, dated 2014).

In one assay the test system is SARS (Toronto-2 Strain). As to the kind of experiment: microbe, parasite or virus in culture. The assay is classed as cell-based, SARS coronavirus (SARSCoV). The conditions noted are these: for ACTIVITY: conc. 1 μM; for cytoprotective effect in the assay (in words): tested concentration (1 μM).
The test system of another assay is SARSCoV, strain Urbani. The assay is classed as cell-based, SARS coronavirus (SARSCoV).

Turning to `Oc1cc(O)c2c(c1)O[C@H](c1ccc(O)c(O)c1)[C@@H](O)C2` [(+)-Catechin], in the assay with SARS (Toronto-2 Strain), the ACTIVITY result is “Inactive” and the “cytoprotective effect in the assay (in words)” value (“cytoprotective effect” for short) is given as “not”. For `Oc1cc(O)c2c(c1)O[C@@H](c1ccc(O)c(O)c1)[C@@H](O)C2` [(+)-Epicatechin], the ACTIVITY result with SARS (Toronto-2 Strain) was “Inactive”.

`Oc1cc(O)c2c(c1)O[C@H](c1cc(O)c(O)c(O)c1)[C@@H](O)C2` [(+)-Gallocatechin]: in the assay on SARS (Toronto-2 Strain), the ACTIVITY entry is “Inactive” and the “cytoprotective effect” value is recorded as “not”. Take `O=C(O[C@@H]1Cc2c(O)cc(O)cc2O[C@H]1c1ccc(O)c(O)c1)c1cc(O)c(O)c(O)c1` [(−)-Catechin Gallate]: the ACTIVITY entry in the assay with SARS (Toronto-2 Strain) was “Active”. As to `O=C(O[C@@H]1Cc2c(O)cc(O)cc2O[C@@H]1c1ccc(O)c(O)c1)c1cc(O)c(O)c(O)c1` [(−)-Epicatechin Gallate], in the assay with SARS (Toronto-2 Strain), the ACTIVITY entry is given as “Active” and the “cytoprotective effect” value was “had cytoprotective effect”.

As for `Oc1cc(O)c2c(c1)O[C@H](c1ccc(O)c(O)c1)[C@H](O)C2` [(−)-Epicatechin], in the assay on SARS (Toronto-2 Strain), the ACTIVITY entry is recorded as “Inactive” and the “cytoprotective effect” value is on record as “not”.

Take `Oc1cc(O)c2c(c1)O[C@H](c1cc(O)c(O)c(O)c1)[C@H](O)C2` [(−)-Epigallocatechin]: in the assay on SARS (Toronto-2 Strain), the ACTIVITY entry is “Inactive” and the “cytoprotective effect” value is reported as “not”. As for `Oc1cc(O)c2c(c1)O[C@@H](c1cc(O)c(O)c(O)c1)[C@H](O)C2` [(−)-Gallocatechin], in the assay with SARS (Toronto-2 Strain), the ACTIVITY entry is “Inactive”.

For orientation: inhibition means how much of the control response was suppressed. In the case of `O=C(O[C@@H]1Cc2c(O)cc(O)cc2O[C@@H]1c1cc(O)c(=O)c2c(O)c(O)cc([C@H]3Oc4cc(O)cc(O)c4C[C@H]3OC(=O)c3cc(O)c(O)c(O)c3)c2c1)c1cc(O)c(O)c(O)c1` [Theaflavindigallate], the inhibition at 1 µM in the assay on SARS (Toronto-2 Strain) (Severe acute respiratory syndrome coronavirus, Vero 76, 72 h, read-out: % CPE (INHIBITION)) stood at 100%. For the same compound, the ACTIVITY entry in the assay on SARS (Toronto-2 Strain) is “Active”. Take `O=c1c(O)cc([C@H]2Oc3cc(O)cc(O)c3C[C@H]2O)cc2c([C@H]3Oc4cc(O)cc(O)c4C[C@H]3O)cc(O)c(O)c12` [free Theaflavin]: the ACTIVITY result with SARS (Toronto-2 Strain) is “Active”. (−)-Catechin: the ACTIVITY entry in the assay with SARS (Toronto-2 Strain) is recorded as “Inactive”.

As for (−)-Epigallocatechin Gallate, in the assay with SARS (Toronto-2 Strain), the ACTIVITY result is “Active” and the “cytoprotective effect” value is given as “had cytoprotective effect”.

For (−)-Gallocatechin Gallate, in the assay on SARS (Toronto-2 Strain), the ACTIVITY result is given as “Active” and the “cytoprotective effect” value was “had cytoprotective effect”. Theaflavindigallate-A: the ACTIVITY entry in the assay on SARS (Toronto-2 Strain) is given as “Inactive”.

As for Theaflavindigallate-B, the ACTIVITY result with SARS (Toronto-2 Strain) was “Inactive”. Regarding catechin, the “direct virucidal effect (in words)” value in the assay with SARSCoV, strain Urbani is “very inhibitory to the virus”.
